Experimental data reported in PubChem BioAssay (NCI).
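Protocol summary: plate cells (96-well), add compound at 5 concentrations, incubate 48 h, interpolate endpoints linearly. Here, GI50 denotes the concentration required for 50% inhibition of growth. Definition used: TGI = concentration required for complete inhibition of growth.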

Columns and labels:
Experiment in all cases: NCI tumour cell line growth inhibition, 48 h
HCC-2998 colon = system: HCC-2998 colon
SF-268 CNS = system: SF-268 CNS
ACHN renal = system: ACHN renal
SR leukemia = system: SR leukemia
RXF 393 renal = system: RXF 393 renal
NCI-H460 lung = system: NCI-H460 lung
HOP-62 NSCLC = system: HOP-62 NSCLC
CAKI-1 renal = system: CAKI-1 renal
A549 NSCLC = system: A549 NSCLC
SK-MEL-28 melanoma = system: SK-MEL-28 melanoma

Structure (SMILES)	GI50 (HCC-2998 colon)	TGI (HCC-2998 colon)	GI50 (SF-268 CNS)	TGI (SF-268 CNS)	GI50 (ACHN renal)	TGI (ACHN renal)	GI50 (SR leukemia)	TGI (SR leukemia)	GI50 (RXF 393 renal)	TGI (RXF 393 renal)	GI50 (NCI-H460 lung)	TGI (NCI-H460 lung)	GI50 (HOP-62 NSCLC)	TGI (HOP-62 NSCLC)	GI50 (CAKI-1 renal)	TGI (CAKI-1 renal)	GI50 (A549 NSCLC)	TGI (A549 NSCLC)	GI50 (SK-MEL-28 melanoma)	TGI (SK-MEL-28 melanoma)
Cc1c2c(nn1-c1ccc(S(=O)(=O)/N=C3\SCCC(=O)N3c3ccccc3)cc1)-c1ccccc1CC2	> 100 µM	> 100 µM	35 µM	> 100 µM	> 100 µM	> 100 µM	65 µM	> 100 µM	70.9 µM	> 100 µM	> 100 µM	> 100 µM	46.4 µM	> 100 µM	> 100 µM	> 100 µM	> 100 µM	> 100 µM	> 100 µM	> 100 µM
COc1ccc(-c2nnc(COc3ccc(C(=O)/C=C/c4ccco4)cc3)o2)cc1	2.32 µM	5.26 µM	2.76 µM	8.25 µM	2.12 µM	5.03 µM	1.52 µM	7.28 µM	1.87 µM	3.62 µM	3.66 µM	14 µM	2.5 µM	7.23 µM	6.11 µM	19.7 µM	3.33 µM	13.8 µM	2.33 µM	5.41 µM
O=[N+]([O-])C(/C=C(\Cl)n1nnc2ccccc21)=C(/Cl)n1nnc2ccccc21		> 100 µM		> 100 µM		> 100 µM		> 100 µM		> 100 µM		> 100 µM		> 100 µM		> 100 µM		> 100 µM		> 100 µM
Cn1cnc([N+](=O)[O-])c1S(=O)(=O)Oc1cccc2ccccc12	13.1 µM	26.6 µM	7.06 µM	33.4 µM	1.97 µM	4.21 µM	1.74 µM	4.57 µM	2.3 µM	4.3 µM	14.7 µM	36 µM	2.56 µM	5.45 µM	1.76 µM	4.07 µM	17.5 µM	52.4 µM	4.68 µM	14.5 µM
N#CC(C#N)=CNC(N)=S		> 100 µM		> 100 µM		> 100 µM		> 100 µM		> 100 µM		> 100 µM		> 100 µM		> 100 µM		> 100 µM		> 100 µM
O=C(/C=C\c1ccc(Cl)c(Cl)c1)c1ccc(Cl)cc1Cl		58.6 µM		55.1 µM		31.6 µM	7.87 µM			39.7 µM		54.8 µM	> 100 µM	> 100 µM		> 100 µM		60.7 µM		
COc1cc(/C=C/c2cc(O)c(C(C)=O)c(O)c2)cc2c1O[C@]1(C)CC[C@@H](O)C(C)(C)[C@H]1C2	6.7 µM	32.4 µM	5.86 µM	55.2 µM	10.5 µM	78.3 µM	3.62 µM	> 100 µM	1.7 µM	6.06 µM	6.26 µM	57.5 µM	4.56 µM	48.4 µM	4.12 µM	> 100 µM	8.54 µM	> 100 µM	4.17 µM	26.2 µM
CC(=O)OC1COC(n2ccc3cc(Br)c([N+](=O)[O-])cc32)C(OC(C)=O)C1OC(C)=O (stereo unspecified)		59.6 µM		> 100 µM		> 100 µM		> 100 µM		> 100 µM		69.5 µM		92.2 µM		> 100 µM		92.3 µM		> 100 µM
CN1CCN(CCCn2c(=O)c3sc4ncccc4c3n3nnc(-c4ccccc4)c23)CC1	6.77 µM	13.4 µM	6.45 µM	13.2 µM	8.2 µM	15.1 µM	1.11 µM	2.57 µM	6.36 µM	13.4 µM	6.88 µM	13.7 µM	8.19 µM	15.3 µM	6.16 µM	13 µM	6.81 µM	13.8 µM	8.73 µM	15.8 µM
CC(C)[C@H]1COC(=O)N1[C@@H]1C(=O)N([C@@H](CCC(=O)N2CCN(C3CCCC3)CC2)C(=O)N[C@@H]2CCCc3ccccc32)[C@@H]1/C=C/c1cccc(Br)c1	1.83 µM	3.63 µM	1.11 µM	2.83 µM			1.87 µM	4.71 µM	1.59 µM	3.47 µM	1.69 µM	3.62 µM	1.82 µM	4.96 µM	1.88 µM	4.01 µM	3.05 µM	11.5 µM		
O=c1c2sccc2n(CC2COc3ccccc3O2)c(=O)n1O (stereo unspecified)	7.6 µM	> 100 µM	13.6 µM	> 100 µM	20.5 µM	> 100 µM	8.1 µM	> 100 µM	3 µM	9.7 µM	4.66 µM	41.8 µM	8.41 µM	> 100 µM	20.1 µM	97.3 µM	23.3 µM	> 100 µM	14.5 µM	> 100 µM
CSc1nc(NC2OCC(OC(C)=O)C(OC(C)=O)C2OC(C)=O)c(N=CC=Nc2c(NC3OCC(OC(C)=O)C(OC(C)=O)C3OC(C)=O)nc(SC)[nH]c2=O)c(=O)[nH]1 (stereo unspecified)		> 100 µM		> 100 µM		> 88.7 µM		> 100 µM		53 µM		> 100 µM		> 92.6 µM		> 100 µM		> 100 µM		> 100 µM
CCCCCCCCC/C=C1\CCC(CN2CCOCC2)C1=O (stereo unspecified)		18.8 µM		18.2 µM		16.5 µM		6.28 µM		4 µM		21.1 µM		26.4 µM		6.38 µM		34.7 µM		9.2 µM
O=C1NCC2(CCN(CCCC3(c4ccc(F)cc4)OCCO3)CC2)N1c1ccccc1		> 100 µM		> 100 µM		> 100 µM		> 100 µM		> 100 µM		> 100 µM		> 100 µM		> 100 µM		> 100 µM		> 100 µM
COc1cccc(-c2nc(-c3ccc(NC(=O)C(C)C)cc3)[nH]c2-c2ccnc(Br)c2)c1	2.03 µM	6.01 µM	4.07 µM	> 100 µM	2.74 µM	> 100 µM	2.41 µM	> 100 µM	0.354 µM	1.46 µM	3.2 µM	21.3 µM	3.44 µM	> 100 µM	2.73 µM	> 100 µM	3.45 µM	> 100 µM	2.78 µM	> 100 µM
